These results are taken from patent US20240060133A1, “METHODS FOR IDENTIFICATION AND TREATMENT OF BLEEDING IN ANIMALS” (WASHINGTON STATE UNIVERSITY, priority 2021, published 2024).

Assay [1] relates to delayed postoperative bleeding in greyhounds. The following applies: 46 greyhounds, limb amputation for osteosarcoma, after introduction of the prophylactic treatment; cited from earlier work.
In assay [2] the test system is delayed postoperative bleeding in Scottish deerhounds. Briefly: Scottish deerhound cases with delayed postoperative bleeding (health survey and veterinary records). The format is in vivo, Scottish deerhound dogs. Conditions: for hematocrit and platelet counts: SDH-2, 750 mg intravenous infusion; for hematocrit: SDH-4, continuous intravenous infusion plus transfusions of whole blood and plasma. The source says: For the instant example, Scottish deerhounds with delayed postoperative bleeding and matched controls were identified through a survey distributed to members of the Scottish Deerhound Club of America. A subsection of this survey requested information regarding the surgical history of the dogs, occurrence of postoperative bleeding complications, and perioperative administration of antifibrinolytic drugs (EACA or tranexamic acid). A diagnosis of delayed postoperative bleeding, defined as unexpected bleeding from a surgical wound starting 1 to 4 days after the procedure, was based on review of the owner's description of the event, the veterinary medical record (if available), and therapeutic response to administration of antifibrinolytic drugs (if used). Dogs were excluded if the bleeding event occurred on the same day of surgery, or after more than 4 days following surgery.
The instant example utilizes the methods described in Example 1 to identify delayed postoperative bleeding cases in canines and controls. Completed health surveys from the owners of 260 Scottish deerhounds were reviewed to identify delayed postoperative bleeding cases and controls. Of the original 260 dogs evaluated, 105 dogs (40%) were identified that had undergone at least one surgical procedure, while 21 dogs (8%) had received two or more surgeries. Nine of 105 dogs (9%) with a surgical history were reported to have experienced postoperative bleeding and/or excessive bruising at least once after a surgical procedure. Of these, bleeding into the abdomen was first diagnosed within 8 hours after surgery in two dogs, while bleeding and/or bruising was not evident until at least the morning after surgery in the remaining 7 dogs. These latter 7 dogs were considered delayed postoperative bleeding cases and all had DNA samples available for case-control analysis. Of the 96 dogs that had undergone surgery without evidence for postoperative bleeding, 25 dogs (26%) had received prophylactic treatment with EACA, while 71 dogs (74%) had not received any antifibrinolytic drug. These latter 71 dogs were considered delayed postoperative bleeding controls. Of the 71 control dogs, 55 dogs had DNA samples available for case-control genetic analysis.
Case information for the seven dogs (SDH-1 to SDH-7) that met the inclusion/exclusion criteria for delayed postoperative bleeding are shown in Table 1.

A further assay addresses T1, canine plasmin (Canis lupus familiaris, UniProt P80009).
T1 construct: purchased Molecular Innovation, Novi, MI DPLM
Briefly: Plasmin inhibition assay (microplate-based colorimetric kinetic assay). The format is biochemical. The following applies: substrate D-VLK-pNA, 37° C., preliminary studies, FIG. 1, read-out: IC50, concentration-dependent inhibition of plasmin activity. Here is the method:
A microplate-based colorimetric kinetic assay was developed and validated to measure the potency of inhibition of canine plasmin by plasma based on a previously published method. Briefly, 2 μL of canine plasma diluted to 50 μL in phosphate-buffered saline (PBS) was added on ice to 96-well UV clear nonbinding plates (Cat. #655901, Greiner Bio-One, Monroe, NC). Then, 50 μL of canine plasmin (Cat. #DPLM, Molecular Innovation, Novi, MI) at 100 nM concentration in 50 μL PBS was added, mixed by pipetting, and incubated at 37° C. for 5 min. To this, 100 μL of prewarmed plasmin substrate (D-VLK-pNA, Molecular Innovation, Novi, MI) at 200 μM concentration in PBS was added, mixed, and immediately placed in a colorimetric plate reader (SpectraMax i3, Molecular Devices, San Jose, CA) set at 37° C. Absorbance at 405 nm was then monitored in each well over the next 5 minutes. Plasmin hydrolysis activity for each well was calculated from the fitted linear slope of the absorbance versus time curve over 5 minutes.
Preliminary studies confirmed concentration-dependent inhibition of plasmin activity by the antifibrinolytic aprotinin (Cat. #A1153, Sigma Aldrich, St Louis, MO) with an IC50 of approximately 500 nM (see FIG. 1). Plasma collected in sodium citrate and pooled from 2 male and 2 female beagle dogs was obtained from a commercial vendor (Biochemed Services, Winchester, VA). […]

Setting [3] is: SDH-2, Day 1-evening (after aminocaproic acid), 750 mg intravenous infusion.
The mark [4] stands for this setting: prophylactic antifibrinolytic given, individual dogs SDH-3 and SDH-6.

T1 sequence (P80009 104-333 limits assumed): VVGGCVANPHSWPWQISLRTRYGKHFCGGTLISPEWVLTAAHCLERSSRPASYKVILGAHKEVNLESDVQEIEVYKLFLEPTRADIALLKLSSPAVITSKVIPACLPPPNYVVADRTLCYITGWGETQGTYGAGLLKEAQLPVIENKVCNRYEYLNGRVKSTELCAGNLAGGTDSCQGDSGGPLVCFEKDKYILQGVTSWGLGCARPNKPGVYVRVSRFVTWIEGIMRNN
T1 sequence (P80009 with tags, fused parts or gaps partner limits assumed): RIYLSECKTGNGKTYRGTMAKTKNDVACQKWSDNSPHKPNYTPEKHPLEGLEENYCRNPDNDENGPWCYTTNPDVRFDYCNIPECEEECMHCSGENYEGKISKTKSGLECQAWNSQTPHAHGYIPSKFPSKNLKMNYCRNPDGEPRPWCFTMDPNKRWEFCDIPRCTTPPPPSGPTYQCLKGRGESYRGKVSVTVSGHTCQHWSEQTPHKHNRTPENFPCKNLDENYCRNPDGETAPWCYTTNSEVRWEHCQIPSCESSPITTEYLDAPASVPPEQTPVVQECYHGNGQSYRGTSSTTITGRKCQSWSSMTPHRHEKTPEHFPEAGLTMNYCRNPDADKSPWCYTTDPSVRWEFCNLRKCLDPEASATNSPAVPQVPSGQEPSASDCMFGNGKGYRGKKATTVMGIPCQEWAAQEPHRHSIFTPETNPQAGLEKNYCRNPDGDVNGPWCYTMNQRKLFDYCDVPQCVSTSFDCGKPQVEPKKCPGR

Regarding `NCCCCCC(=O)O` [EACA, 6-aminohexanoic acid], the incidence of bleeding in assay [1] was 16%. Moreover, the “hematocrit and platelet counts” value in assay [2] (by Day 5) was “within their normal range”; in assay [2] (next morning (Day 2)), “significantly increased”. Besides, the “Hematocrit (%)” value in assay [2] (setting [3]) is listed as 34.4%; in assay [2] (SDH-2, Day 2), 41.7%; in assay [2] (SDH-2, Day 5), 51.9%; in assay [2] (SDH-2, Week 5), 50.4%. Moreover, the “Platelet count (×10^9/L)” value is reported as 31 ×10^9/L in assay [2] (setting [3]); 125 ×10^9/L in assay [2] (SDH-2, Day 2); 371 ×10^9/L in assay [2] (SDH-2, Day 5); 276 ×10^9/L in assay [2] (SDH-2, Week 5). Besides, the “bleeding after therapeutic treatment” value in assay [2] (SDH-3, castration, 500 mg orally every 8 hours for 5 days, with fluids, antibiotics, vitamin K) was “No further bleeding was observed”; in assay [2] (SDH-6, sebaceous cyst removal, orally administered after bleeding) it was “the bleeding resolved”. Besides, the “bruising or delayed postoperative bleeding after prophylactic treatment” value in assay [2] (SDH-3, splenectomy, 500 mg intravenous infusion during procedure then 500 mg oral every 8 hours for 5 days) is given as “No excessive bruising or delayed postoperative bleeding were observed”. In addition, the values for the hematocrit in assay [2] (after one month) and in assay [2] (at discharge after 5 days (15% before)) were 60% and 36%, respectively. Further, the “postoperative bleeding or bruising after prophylactic treatment” value in assay [2] (SDH-6, skin abscess surgery, pre-operative oral dose) is given as “No postoperative bleeding or bruising was observed”. The “bleeding after drug administration” value in assay [2] (dogs with delayed postoperative bleeding, EACA oral or injectable) was “stopped within hours”. The “Delayed bleeding?” value in assay [2] (setting [4]) is on record as “No”. For the same compound, the Outcome entry is given as “No complications” in assay [2] (setting [4]) and “Responded to antifibrinolytic” in assay [2] (therapeutic antifibrinolytic given after delayed bleeding, individual dogs SDH-2 to SDH-6).

In the case of aprotinin, the IC50 at canine plasmin was approximately 500 nM.
